Data: PubChem BioAssay (NCI)
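1) Cells in 96-well plates. 2) Compound, 48 h, 5 concentrations. 3) Linear interpolation between surrounding doses. 4) Unreached endpoint = highest concentration. GI50 is the concentration that inhibits growth by half. TGI marks complete inhibition of growth.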

Key:
Experiment in all cases: DTP human tumour cell line panel, 48 h
[1] = test system: HCT-15 colon
[2] = test system: MOLT-4 leukemia
[3] = test system: UACC-257 melanoma
[4] = test system: TK-10 renal
[5] = test system: OVCAR-8 ovarian
[6] = test system: CCRF-CEM leukemia
[7] = test system: SK-MEL-2 melanoma
[8] = test system: HCC-2998 colon
[9] = test system: SF-295 CNS
[10] = test system: UACC-62 melanoma

SMILES	TGI [1] [µM]	TGI [2] [µM]	TGI [3] [µM]	TGI [4] [µM]	TGI [5] [µM]	TGI [6] [µM]	TGI [7] [µM]	TGI [8] [µM]	TGI [9] [µM]	TGI [10] [µM]	GI50 [1] [µM]	GI50 [2] [µM]	GI50 [3] [µM]	GI50 [4] [µM]	GI50 [5] [nM]	GI50 [6] [nM]	GI50 [7] [nM]	GI50 [8] [nM]	GI50 [9] [nM]	GI50 [10] [µM]
C/C(=N\NC(=O)c1ccncc1)c1sc(-n2nc(-c3ccccc3)cc2-c2ccccc2)nc1C	> 31.6	> 31.6	> 31.6	> 31.6	> 100	> 31.6	> 31.6	> 31.6	> 31.6	> 31.6	–	–	–	–	–	–	–	–	–	–
N#C/C(=C\c1cc(O)c(O)c(O)c1)C(N)=O	> 100	> 100	> 100	> 100	> 100	> 76.2	> 100	> 100	> 100	> 100	–	–	–	–	–	–	–	–	–	–
C/C=C(\N=C=S)C(=O)OC1C(COC(C)=O)OC([C@]2(O)CC(=O)C(=N)C(C(=O)O)=C2O)C(O)C1OC1CC(OC)C(O)([C@@H](C)OC(=O)[C@@H](C)CC)C(C)O1 (stereo not given in full)	37.1	14	29.9	31.4	15	7.45	20	40.1	37.2	10.3	–	–	–	–	–	–	–	–	–	–
CN(C)NC(=O)/C(=C/c1ccc(Cl)cc1)NC(=O)c1ccccc1	> 100	> 100	> 100	> 100	> 100	> 100	> 100	> 100	> 100	> 100	–	–	–	–	–	–	–	–	–	–
CN(C)NC1=C([N+](=O)[O-])C=NN(c2ccccc2)C1	3.09	5.05	3.57	11.8	4.16	4.52	3.21	3.18	3.2	3.14	–	–	–	–	–	–	–	–	–	–
CC1(C)C(N2CCOCC2)CS1(=O)=O (stereo not given)	> 10	> 10	> 10	> 10	> 10	> 10	> 10	> 10	> 10	> 10	–	–	–	–	–	–	–	–	–	–
C=C1c2nc3ccccc3n2C=C(c2cccc(Cl)c2)N1Cc1ccc(OC)cc1	> 100	11.2	> 100	> 64.9	> 57.3	> 23.3	68	13.5	6.91	19.1	0.535	2.57	5.64	6.64	2430	2750	636	2320	1420	0.937
COc1ccc2c(c1)C(=Nc1ccc(F)c(Cl)c1)c1c-2c(Nc2ccc(F)c(Cl)c2)nc2ccccc12	> 100	41.3	> 100	> 80	> 58.5	3.99	> 71.8	> 100	> 100	> 70.5	> 71.3	21.2	> 60.6	34.5	22600	804	23600	> 100000	33000	22.3
Cc1ccc(C[As+](c2ccccc2)(c2ccccc2)c2ccccc2)cc1	> 100	13.6	1.75	20.5	15.3	55	4.34	19.6	4.41	12.6	13	2.41	0.279	2.01	599	1080	887	645	753	0.371
Nc1[nH]nc2nc(-c3cc(Cl)ccc3Cl)cc(-c3ccc(F)cc3)c12	> 100	> 100	68.3	> 100	59.5	11.3	43.2	36.1	73.4	32.4	28.5	23.2	25.2	52.9	14300	813	21200	19100	25700	16
CN1CCC2(CC1)N=C(SCC(=O)Nc1cnc3ccccc3c1)C(c1ccc(Br)cc1)=N2	3.76	4.37	3.31	4.49	5.54	5.31	3.88	3.42	3.93	3.21	1.86	1.93	1.79	1.99	2330	2210	1930	1850	1790	1.71
CCCCC(=O)N(c1ccc(Nc2c3ccccc3nc3cc([N+](=O)[O-])ccc23)cc1)S(C)(=O)=O	29	28.4	62.5	> 84	78.8	> 100	62.9	30	> 100	26.1	4.45	3.53	14.6	7.61	11000	3650	23300	14100	4830	7.12
COc1cc(-c2nn(-c3ccc(NC(=O)Nc4cc(C(F)(F)F)cc(C(F)(F)F)c4)cc3)cc2-c2ccncc2)ccc1Cl	4.01	> 100	7.73	9.3	27.8	> 100	3.43	5.38	2.63	3.4	1.58	3.28	2.3	3.13	2480	2130	1700	2210	1100	1.55
Cn1c(CCCC(=O)O)nc2cc(N(CCCl)CCCl)ccc21	> 100	22.6	> 100	> 100	> 100	> 77.7	> 100	> 100	> 100	> 100	> 100	3.6	> 94.7	> 91.3	> 91200	28100	> 100000	> 65700	> 64400	52.5
